Values quoted from earlier work, collected in patent US20090155355A1, “Particles in a capsule” (Multi Formulations Ltd., priority 2007, published 2009).
Entries after “also recorded” stand apart in the source; their conditions may differ. Values belong to the molecule of their own block, whether it stands above or below them.

Columns and labels:
[1] = in vivo
[2] = combination with acetaminophen or ibuprofen
[3] = oral, single 400 mg dose, humans

- plasma half-life [1]: about 2 hrs
- time of peak plasma levels [1]: 0.5 to 2 h
Compound: CC(=O)Nc1ccc(O)cc1 [Acetaminophen]

Compound: Cn1c(=O)c2c(ncn2C)n(C)c1=O [caffeine, Caffeine]
- half-life (mean time) (highly variable): about 5 hrs
- time to peak levels (in vivo): about 1 hr
- effect on analgesics [2]: enhance and prolong the effects of acetaminophen; also recorded: enhance the analgesic effects of ibuprofen

- time to maximum plasma concentration [3]: about 1.3 hrs
Compound: CC(C)Cc1ccc(C(C)C(=O)O)cc1 (stereo not drawn) [ibuprofen, Ibuprofen]
